Assay results from US20150051246A1 (priority 2013, published 2015).

Test system: male C57BL/6NCrl mice
Assay: Object Location Task (OLT), spatial memory, 24 h retention interval
Format: in vivo
Details: for d2 index, discrimination index for T2: 3 h after T1, 24 h interval
Description: The objective of this study was to evaluate the cognitive improvement effects of Roflumilast on spatial memory employing Object Location Task (OLT) in male C57BL/6NCrl mice. Roflumilast was compared with data of the already established PDE4 inhibitor Rolipram in the same model.
Twenty-four 7 month-old male C57BL/6NCrl mice (Charles River, L'Arbresle, France) were used (average body weights: 27.6 g). The animals were kept under a 12/12-hour light/dark cycle (lights on from 07.00 pm to 07.00 am) with free access to food and water. All testing was done between 09.00 am and maximally 06.00 pm.
Both rolipram (Sigma-Aldrich St. Louis, USA; MW 275.34) and roflumilast (Biocrea, Radebeul, Germany; MW 403.21) were dissolved in dimethylsulfoxide (DMSO) and kept at 4° C.; this stock solution was used for further dilutions in 0.5% methylcellulose. Each of rolipram and roflumilast is used in form of its free base. All injected solutions consisted of 0.5% methylcellulose with a fixed DMSO percentages (1.2%) (vehicle).
For the Object Location Task (OLT), doses of 0.01 mg/kg, 0.03 mg/kg and 0.1 mg/kg of Rolipram or Roflumilast or vehicle were administered subcutaneously (s.c.). Based on previous findings, PDE4 inhibitor single administration was performed 3 hours after the first trial as this has an optimum effect on object memory performance. The injection volume was 5 μl/g.
The OLT apparatus consisted of a circular arena, 40 cm in diameter. Half of the 40 cm transparent polyvinyl chloride wall was covered from the outside with white paper. Two objects were placed symmetrically about 10 cm away from the wall on the separation line, between the transparent and covered side of the arena. Four different sets of objects were available: (1) a cone made of brass (maximal diameter 6 cm and total height 3.8 cm), (2) a transparent glass bottle (diameter 2.7 cm, height 8.5 cm) filled with sand and water, (3) a massive metal cube (2.5 cm×5 cm×7.5 cm) with two holes (diameter 1.5 cm), and (4) a massive aluminum cube with a tapering top (4.5 cm×4.5 cm×8.5 cm).
A testing session comprised two trials of 4 minutes. Before each trial, mice were placed in an empty Makrolon cage (incubation cage) for the same amount of time as the trial (4 min). During the first trial (T1), two identical objects were placed symmetrically about 10 cm away from the wall on the separation line between the transparent and covered side of the arena. After the first exploration period of 4 min, the mouse was put back in its home cage. Mice then received treatment at 3 hours post T1. Subsequently, after a predetermined delay interval (24 h), the mouse was placed in the apparatus for the second trial of 4 min (T2). Two identical objects as in T1 were used; one object was placed in the previously used position, whereas the other was placed in a novel position. The novel position of the object could either be a fixed distance towards the front or a fixed distance towards the back of the arena for both objects. The times spent exploring each object during T1 and T2 were recorded manually using a personal computer. All objects and locations were used in a balanced manner to exclude possible object and/or location preferences. To avoid olfactory cues, the objects were thoroughly cleaned with 70% ethanol after each trial. The testing order of conditions was determined randomly.
The measurements reflected the time spent by the mice in exploring each object during T1 and T2. The time spent in exploring the two identical samples in T1 were represented by ‘a1’ and ‘a2’, respectively. The time spent in exploring the sample and the new object in T2 were represented by ‘a’ and ‘b’, respectively. From these exploration times the following variables were calculated: e1, e2, and d2 (Table 1). The d2 index is a relative measure of discrimination corrected for exploratory activity. […]

O=C(Nc1c(Cl)cncc1Cl)c1ccc(OC(F)F)c(OCC2CC2)c1 [roflumilast, N-(3,5-dichloropyridin-4-yl)-3-cyclopropylmethoxy-4-difluoromethoxybenzamide]
d2 index, discrimination index for T2 (0.01 mg/kg s.c.): 0.04
d2 index, discrimination index for T2 (0.03 mg/kg s.c.): 0.34
d2 index, discrimination index for T2 (0.1 mg/kg s.c.): 0.00
dose effective in improving spatial memory (s.c.): 0.03 mg/kg
effect on spatial memory (in words) (single subcutaneous 0.01 mg/kg): nearly no effect
effect on spatial memory (in words) (single subcutaneous 0.03 mg/kg): pronounced effect on spatial memory
effect on spatial memory (in words) (single subcutaneous 0.1 mg/kg): completely no effect
